For 10 compounds, Activity results are on record in ChEMBL document CHEMBL4480365, “Coupling the cell-penetrating peptides transportan and transportan 10 to primaquine enhances its activity against liver-stage malaria parasites” (Medchemcomm, 2019).

One series deals with Huh-7. The series can be described thus: Cytotoxicity against human HuH7 cells assessed as reduction in cell viability at 1 to 10 uM. Conditions: huh-7, 10 µM. The format is cell-based.
The test system of a further series is Plasmodium berghei. The series can be described thus: Antiplasmodial activity against Plasmodium berghei liver-stage forms at 1 to 10 uM. The format is functional, organism-based.

The source made the active and inactive calls. The calls are words filed in the database; no cut-off is given here. Starred links: 1 amine or outer side, 2 acyl side, 3 side chain; linkers in the order of their positions; H or OH if unused. Residues, ends and D or L forms follow the SMILES beside them. *: point of attachment. X1 = COc1cc(NC(C)CCCNC(=O)C(N)CSSCC(N)C(=O)NC(=O)[C@H](CC(C)C)N*)c2ncccc2c1; Primaquine = COc1cc(NC(C)CCCN*)c2ncccc2c1; Suc = O=C(CCC(=O)[*:2])[*:1]

As for `CC[C@H](C)[C@H](NC(=O)[C@H](CCCCN)NC(=O)[C@H](CCCCN)NC(=O)[C@H](C)NC(=O)[C@H](CC(C)C)NC(=O)[C@H](C)NC(=O)[C@H](C)NC(=O)[C@H](CC(C)C)NC(=O)[C@H](C)NC(=O)[C@H](CCCCN)NC(=O)[C@H](CC(C)C)NC(=O)[C@H](CC(N)=O)NC(=O)[C@@H](NC(=O)[C@H](CCCCN)NC(=O)CNC(=O)[C@H](CC(C)C)NC(=O)[C@H](CC(C)C)NC(=O)[C@H](Cc1ccc(O)cc1)NC(=O)CNC(=O)[C@H](C)N)[C@@H](C)CC)C(=O)N[C@@H](CC(C)C)C(=O)O`, the Activity result with Huh-7 is reported as “Non-Toxic”. The outcome with Plasmodium berghei was Active. In the case of `CC[C@H](C)[C@H](NC(=O)[C@H](CCCCN)NC(=O)[C@H](CCCCN)NC(=O)[C@H](C)NC(=O)[C@H](CC(C)C)NC(=O)[C@H](C)NC(=O)[C@H](C)NC(=O)[C@H](CC(C)C)NC(=O)[C@H](C)NC(=O)[C@H](CCCCN)NC(=O)[C@H](CC(C)C)NC(=O)[C@H](CC(N)=O)NC(=O)[C@@H](NC(=O)[C@H](CCCCN)NC(=O)CNC(=O)[C@H](CC(C)C)NC(=O)[C@H](CC(C)C)NC(=O)[C@H](Cc1ccc(O)cc1)NC(=O)CNC(=O)[C@H](C)NC(=O)[C@H](CO)NC(=O)[C@H](CC(N)=O)NC(=O)[C@H](CC(C)C)NC(=O)[C@@H](NC(=O)[C@H](Cc1c[nH]c2ccccc12)NC(=O)CN)[C@@H](C)O)[C@@H](C)CC)C(=O)N[C@@H](CC(C)C)C(=O)O`, the Activity result in the series with Huh-7 is “Non-Toxic”. In the series on Plasmodium berghei, the outcome was inactive. As for `CC[C@H](C)[C@H](NC(=O)[C@H](CCCCN)NC(=O)[C@H](CCCCN)NC(=O)[C@H](C)NC(=O)[C@H](CC(C)C)NC(=O)[C@H](C)NC(=O)[C@H](C)NC(=O)[C@H](CC(C)C)NC(=O)[C@H](C)NC(=O)[C@H](CCCCN)NC(=O)[C@H](CC(C)C)NC(=O)[C@H](CC(N)=O)NC(=O)[C@@H](NC(=O)[C@H](CCCCN)NC(=O)CNC(=O)[C@H](CC(C)C)NC(=O)[C@H](CC(C)C)NC(=O)[C@H](Cc1ccc(O)cc1)NC(=O)CNC(=O)[C@H](C)NC(=O)CCC(=O)NCCCC(C)Nc1cc(OC)cc2cccnc12)[C@@H](C)CC)C(=O)N[C@@H](CC(C)C)C(=O)O` (some centres undefined), the Activity entry with Huh-7 is listed as “Non-Toxic”. The result in the series with Plasmodium berghei was Active.

On to `CC[C@H](C)[C@H](NC(=O)[C@H](CCCCN)NC(=O)[C@H](CCCCN)NC(=O)[C@H](C)NC(=O)[C@H](CC(C)C)NC(=O)[C@H](C)NC(=O)[C@H](C)NC(=O)[C@H](CC(C)C)NC(=O)[C@H](C)NC(=O)[C@H](CCCCN)NC(=O)[C@H](CC(C)C)NC(=O)[C@H](CC(N)=O)NC(=O)[C@@H](NC(=O)[C@H](CCCCN)NC(=O)CNC(=O)[C@H](CC(C)C)NC(=O)[C@H](CC(C)C)NC(=O)[C@H](Cc1ccc(O)cc1)NC(=O)CNC(=O)[C@H](C)N)[C@@H](C)CC)C(=O)N[C@@H](CC(C)C)C(=O)NC(=O)C(N)CSSCC(N)C(=O)NCCCC(C)Nc1cc(OC)cc2cccnc12` (some centres undefined) (H-AGYLLGKINLKALAALAKKI-X1), for which the Activity result in the series with Huh-7 is “Toxic”. For the same compound, the outcome with Plasmodium berghei was Active. `CC[C@H](C)[C@H](NC(=O)[C@H](CC(C)C)NC(=O)[C@H](Cc1ccccc1)NC(=O)[C@H](Cc1ccccc1)NC(=O)CCC(=O)NCCCC(C)Nc1cc(OC)cc2cccnc12)C(=O)N1CCC[C@H]1C(=O)N[C@@H](CCCCN)C(=O)NCC(=O)NCC(=O)N[C@@H](CCCNC(=N)N)C(=O)N[C@@H](CCCCN)C(=O)N[C@@H](CCCCN)C(=O)N[C@@H](CCCNC(=N)N)C(=O)N[C@@H](CCCNC(=N)N)C(=O)N[C@@H](CCC(N)=O)C(=O)N[C@@H](CCCNC(=N)N)C(=O)N[C@@H](CCCNC(=N)N)C(=O)N[C@@H](CCCNC(=N)N)C(=O)N1CCC[C@H]1C(=O)N1CCC[C@H]1C(=O)N[C@@H](CCC(N)=O)C(=O)O` (some centres undefined) ({Primaquine-Suc}-FFLIPKGGRKKRRQRRRPPQ-OH): in the series on Huh-7, the Activity result is “Non-Toxic”.

On to `COc1cc(NC(C)CCCNC(=O)CCC(=O)N[C@@H](CCCNC(=N)N)C(=O)N[C@@H](CCCCN)C(=O)N[C@@H](CCCCN)C(=O)N[C@@H](CCCNC(=N)N)C(=O)N[C@@H](CCCNC(=N)N)C(=O)N[C@@H](CCC(N)=O)C(=O)N[C@@H](CCCNC(=N)N)C(=O)N[C@@H](CCCNC(=N)N)C(=O)N[C@@H](CCCNC(=N)N)C(=O)N2CCC[C@H]2C(=O)N2CCC[C@H]2C(=O)N[C@@H](CCC(N)=O)C(=O)O)c2ncccc2c1` (some centres undefined) ({Primaquine-Suc}-RKKRRQRRRPPQ-OH), for which, in the series with Huh-7, the Activity result is listed as “Non-Toxic”. Also, the result in the series with Plasmodium berghei was Active. On to `CC[C@H](C)[C@H](NC(=O)[C@H](CCCNC(=N)N)NC(=O)[C@@H](NC(=O)[C@H](C)NC(=O)[C@@H](NC(=O)[C@@H](NC(=O)[C@H](CC(C)C)NC(=O)[C@H](CCCNC(=N)N)NC(=O)[C@@H](NC(=O)CCC(=O)NCCCC(C)Nc1cc(OC)cc2cccnc12)C(C)C)[C@@H](C)CC)C(C)C)C(C)C)C(=O)N[C@@H](Cc1c[nH]c2ccccc12)C(=O)N[C@@H](CCCNC(=N)N)C(=O)N[C@@H](CCCNC(=N)N)C(=O)O` (some centres undefined) ({Primaquine-Suc}-VRLIVAVRIWRR-OH), for which the Activity entry in the series with Huh-7 is “Non-Toxic”. Also, in the series with Plasmodium berghei, the result was inactive.

For the compound `COc1cc(NC(C)CCCN)c2ncccc2c1` (centres undefined) [PRIMAQUINE], the Activity entry in the series on Huh-7 was “Non-Toxic”. In addition, in the series on Plasmodium berghei, the result was Active. As to H-FFLIPKGGRKKRRQRRRPPQ-OH, the Activity entry in the series with Huh-7 is “Non-Toxic”. For the same compound, the result in the series on Plasmodium berghei was Active. Turning to H-RKKRRQRRRPPQ-OH, the Activity result with Huh-7 is recorded as “Non-Toxic”. Moreover, the outcome with Plasmodium berghei was Active.
